Laboratory results published in US8058414B2, “Unnatural polymerase substrates that can sustain enzymatic synthesis of double stranded nucleic acids from a nucleic acid template and methods of use” (Life Technologies Corporation, priority 2008, dated 2011).

How the values were obtained:
Klenow enzyme = target: T1, Klenow enzyme (Escherichia coli, UniProt P00582); experiment: Polymerase extension of FAM labeled primer over (AAG)14 template; type: biochemical; conditions: for extension over (AAG)14 template (electropherogram): FIG. 12, with dCTP, FAM labeled primer
T1 construct: Klenow enzyme at 37° C. for 1 minute
Method: In order to determine if a polymerase would continue to extend an unnatural DNA (i.e., a DNA including moieties not present in natural DNA) comprising residues having amino groups, an experiment was designed using aminopropargyl-dUTP (deoxyuridine triphosphate) and dCTP (deoxycytidine triphosphate) which yields extended DNA having residues with terminal amino functional groups on the incorporated dUTP moieties. The dUTP used is represented by the formula: […]
The experiment was conducted using an FAM (i.e., 6-carboxyfluorescein) labeled primer over an (AAG)14 [SEQ ID NO: 1] template.
These substrates were tested against the same template/primer system used in the experiments shown in FIGS. 12A and 12B {i.e., Klenow enzyme at 37° C. for 1 minute over an (AAG)14 [SEQ ID NO: 1] template}. The concentration of the nucleotides for this experiment was 5 μM. The results of this experiment are summarized in the electropherogram of FIG. 13C.
Similar experiments were conducted over the same template for natural dCTP/dTTP, with results shown in the electropherogram of FIG. 13A, and the methylpropynyl analogs of these substrates, with results shown in the electropherogram of FIG. 13B.

[1] = test system: Therminator (NEB) DNA polymerases; experiment: Evaluation of termination and mis-incorporation properties of γ-substituted-dNTP's (capillary electrophoresis of primer extension); type: biochemical; conditions: for termination properties (overall) / extension to the first correct base / consumption of the primer / further incorporation over the 2nd correct base (template 2) / activity / incorporation / mis-incorporation: 1 μM substrate; for extension to the first correct base / consumption of the primer: after 10 minutes; for further incorporation over the 2nd correct base (template 2): after 60 minutes
Method: FIGS. 21A-21D are electropherograms showing the termination properties of γ-phosphate substituted dUTP analogs having an O-propargyl-S-substituent at the 5 position over a p(dA) template.
[drawing 12] wherein R1 is a methyl group. The substrate concentration was 1 μM. FIG. 21A is an electropherogram for the primer. FIGS. 21B-D are the electropherograms after 10, 30 and 60 minutes of extension, respectively.
FIGS. 22A-22D are electropherograms showing the mis-incorporation properties of γ-phosphate substituted dUTP analogs having an O-propargyl-S-substituent at the 5 position and a benzyl group as a γ-phosphate substituent. The nucleotide analog used in these experiments had the same general structure as set forth above in the description of FIGS. 21A-21D. For these experiments, all reactions were conducted for 10 minutes at a substrate concentration of 1 μM using Mg^2+. Two templates were used:
General procedure for evaluation of termination properties of γ-substituted-dNTP's comprising silver ion cleavable linker arms attached to the base. All evaluations performed with Therminator (NEB) DNA polymerases were 3′ to 5′ exonuclease negative. Three types of templates were used in testing each substrate, where N denotes the complement of the base that is being evaluated for its termination properties, and the underlined portion of the target is the priming site: 1) a single correct base immediately after the priming site followed by incorrect bases; 2) two correct bases immediately after the priming site followed by incorrect bases; 3) each incorrect base followed by the correct base and then additional incorrect bases. The first two primers were used to show incorporation and termination, while the third set of templates was used to study mis-incorporation. All substrates were evaluated by capillary electrophoresis with analysis for extension of 0, 1, or 2 bases from a fluorescein labeled −21 M13 primer (the binding site of the primer corresponds to the underlined portion of the templates shown below).
Templates were pre-hybridized to the primer at 2 μM final concentration. The final assay concentration of the primer/template hybrid was 40 nM.
Unless otherwise noted, substrates were tested at 1 μM final concentration with 1 μL of the appropriate commercial enzyme at the concentration supplied by the manufacturer (usually 2-5 U/μL in 2× buffer composed of 40 mM Tris, pH 7.6, 10 mM DTT, 10 mM […] and 30 mM isocitrate). Each buffer was used at 1× in the final assay.
Generally, assays were set up as 10 μL final volume and run at 65° C. The termination properties were evaluated at 10 minutes, 30 minutes and 1 hr. At the end of each reaction, […] of the reaction mix was pipetted into 25 μL of 0.5 M EDTA, to quench the reaction, in a streptavidin coated microtiter plate well (Applied Biosystems Part No. 4357279) to capture the biotin labeled template for purification of the primer. Plates were shaken at room temperature for 10 minutes. Excess fluid was discarded and the microtiter wells were washed 3× with 4×SSC containing 0.1% Tween 20. Plates were centrifuged briefly upside down to remove excess buffer. To remove the primer from the template, 20 μL of HiDi Formamide (Applied Biosystems Part No. 4311320) was added with size ladder (LIZ® dye-labeled SNPlex™ internal size standard) to each well. The plate was incubated at 50° C. with shaking for 10 minutes. […] of the HiDi Formamide solution was transferred to a 96 well plate (Applied Biosystems Part No. N8010560) and covered with a 96 well plate septa (Applied Biosystems Part No. 4315933). Samples were separated electrophoretically on an AB 3100XL with a 36 cm capillary with POP6™ polymer separating media. The peaks were analyzed with either GeneScan® Software or Peak Scanner™ software, both from Applied Biosystems.

[2] = 5 μM substrate, after 30 minutes

T1 sequence (P00582 324-928): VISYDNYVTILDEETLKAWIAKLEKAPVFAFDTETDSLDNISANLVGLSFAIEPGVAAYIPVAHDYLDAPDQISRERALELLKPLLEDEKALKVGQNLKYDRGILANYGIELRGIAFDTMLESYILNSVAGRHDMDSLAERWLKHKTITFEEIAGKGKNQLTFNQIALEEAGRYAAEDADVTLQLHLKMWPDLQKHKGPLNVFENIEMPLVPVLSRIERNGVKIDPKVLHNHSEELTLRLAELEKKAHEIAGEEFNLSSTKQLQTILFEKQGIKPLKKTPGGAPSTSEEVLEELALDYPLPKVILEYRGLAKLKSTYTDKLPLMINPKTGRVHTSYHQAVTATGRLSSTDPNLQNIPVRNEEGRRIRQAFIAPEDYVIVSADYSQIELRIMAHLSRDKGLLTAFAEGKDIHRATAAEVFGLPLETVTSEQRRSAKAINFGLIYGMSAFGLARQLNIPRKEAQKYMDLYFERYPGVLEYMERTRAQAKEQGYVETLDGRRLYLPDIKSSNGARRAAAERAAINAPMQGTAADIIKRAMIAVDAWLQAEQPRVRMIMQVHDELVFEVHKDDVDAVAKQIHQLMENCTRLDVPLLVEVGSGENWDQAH

Compound: CC#CCNC(=O)CO
- synthesis of the extension product over (AAG)14 template (Klenow enzyme; FIG. 13, Klenow enzyme at 37° C. for 1 minute, nucleotides 5 μM): excellent synthesis of the extension product

Compound: NCC#Cc1cn([C@H]2C[C@H](O)[C@@H](COP(=O)(O)OP(=O)(O)OP(=O)(O)O)O2)c(=O)[nH]c1=O [aminopropargyl-dUTP]
- extension over (AAG)14 template (electropherogram) (Klenow enzyme; 42 base target template): poor extension
- extent of extension over the template (Klenow enzyme; FIG. 12B, 42 base target template): ≤ 14 bases

Compound: Nc1ncnc2c1ncn2[C@H]1C[C@H](O)[C@@H](COP(=O)(O)OP(=O)(O)OP(=O)(O)OCc2ccccc2)O1 [compound 27, γ-benzyl-dATP]
- termination properties (overall) [1]: excellent termination properties
- extension to the first correct base / consumption of the primer [1]: almost complete consumption of the primer
- further incorporation over the 2nd correct base (template 2) [1]: no further incorporation is observed

Compound: C[n+]1ccn(CCOP(=O)(O)OP(=O)(O)OP(=O)(O)OCC2OC(n3ccc(N)nc3=O)CC2O)c1 (stereo not drawn) [compound 28, γ-(2-(N-(3-methylimidazolium))-ethyl)-dCTP]
- activity [1]: quite low
- incorporation ([1]; after 1 hr.): significant incorporation
- mis-incorporation ([1]; after 1 hr.): no mis-incorporation is observed
- consumption of the primer [1, 2]: completely consumed
- extension past the first base on the GG template [1, 2]: only a trace of extension

Compound: C[n+]1ccn(CCOP(=O)(O)OP(=O)(O)OP(=O)(O)OC[C@H]2O[C@@H](n3cnc4c(=O)[nH]c(N)nc43)C[C@@H]2O)c1 [compound 29, γ-(2-(N-(3-methylimidazolium))-ethyl)-dGTP]
- activity [1]: quite low
- incorporation ([1]; after 1 hr.): significant incorporation
- mis-incorporation ([1]; after 1 hr.): no mis-incorporation is observed
- consumption of the primer ([1]; 4 μM substrate, after 1 hr.): completely consumed
- extension past the first base on the CC template ([1]; 4 μM substrate, after 1 hr.): only a trace of extension

Compound: methylpropynyl dUTP
- extension over (AAG)14 template (electropherogram) (Klenow enzyme; 42 base target template): extension to a single product

Compound: γ-methyl-dUTP [compound 26]
- termination properties (overall) [1]: excellent termination properties
- extension to the first correct base / consumption of the primer [1]: almost complete consumption of the primer
- extension to the first correct base / consumption of the primer ([1]; listed as drawing 12): almost complete
- further incorporation over the 2nd correct base (template 2) [1]: No further incorporation is observed
- further incorporation over the 2nd correct base (template 2) ([1]; listed as drawing 12): no observable incorporation
- incorporation into the AA template ([1]; FIG. 22B, 10 minutes, 1 μM, Mg2+): is incorporated into the AA template
- mis-incorporation over the dG or dT in the GA and TA templates ([1]; FIG. 22C-D, 10 minutes, 1 μM, Mg2+): is not mis-incorporated
